Data from US9603899B2, “PDGF induced cell homing” (The Trustees of Columbia University in the City of New York, priority 2010, dated 2017).
Entries after “also recorded” stand apart in the source; their conditions may differ.

Columns and labels:
[1] = system: alveolar stem/progenitor cells; test: Transwell migration assay; type: cell-based, human; details: for migration / recruitment of alveolar stem/progenitor cells: negative control serum-free medium, positive control DMEM with 15% FBS
Method: Transwell migration assay was performed to determine PDGF's ability to recruit alveolar stem/progenitor cells in a dose-response manner.

[2] = system: alveolar stem/progenitor cells; details: 15 μM; chemically defined medium, calcein AM label

Compound | migration / recruitment of alveolar stem/progenitor cells ([1]; Transwell migration) | PDGF concentration at which highest cell migration was observed ([1]; tested at 10 ng/ml, 25 ng/ml and 50 ng/ml) [ng/mL] | capillary tubular formation [2] | chemoattractant efficacy compared among PDGF isoforms ([1]; Transwell migration, compared with other PDGF isoforms and positive control 15% FBS)
PDGF-AA: PDGF isoform composed of two A chains | resulted in cell migration | – | – | –
platelet-derived growth factor [PDGF] | induces robust, dose-dependent migration; also recorded: cell migration was shown; also recorded: induced dose-dependent migration | 50 | – | –
C[S+]([O-])CCCCN=C=S (stereo not shown) [sulforaphane] | – | – | blocked | –
PDGF-AB: PDGF isoform composed of one A and one B chain | resulted in cell migration | – | – | –
PDGF-BB: PDGF isoform composed of two B chains | induces robust, dose-dependent migration; also recorded: resulted in cell migration | – | – | most potent chemoattractant among all PDGF isoforms; also recorded: most robust efficacy, which was equal to positive control group with 15% fetal bovine serum; also recorded: higher rates of cell migration
